Source: ChEMBL document CHEMBL1128800, “Diastereoselective synthesis of mixanpril, an orally active dual inhibitor of neutral endopeptidase and angiotensin converting enzyme” (Bioorg Med Chem Lett, 1995)
The source made the active and inactive calls. The calls are words filed in the database; no cut-off is given here.

Key:
[1] = molecular target: T1, Angiotensin-converting enzyme (Rattus norvegicus) (UniProt P47820); assay: Effective dose against plasmatic angiotensin converting enzyme (ACE) in anaesthetized rats; settings: Plasma
T1 sequence (whole entry): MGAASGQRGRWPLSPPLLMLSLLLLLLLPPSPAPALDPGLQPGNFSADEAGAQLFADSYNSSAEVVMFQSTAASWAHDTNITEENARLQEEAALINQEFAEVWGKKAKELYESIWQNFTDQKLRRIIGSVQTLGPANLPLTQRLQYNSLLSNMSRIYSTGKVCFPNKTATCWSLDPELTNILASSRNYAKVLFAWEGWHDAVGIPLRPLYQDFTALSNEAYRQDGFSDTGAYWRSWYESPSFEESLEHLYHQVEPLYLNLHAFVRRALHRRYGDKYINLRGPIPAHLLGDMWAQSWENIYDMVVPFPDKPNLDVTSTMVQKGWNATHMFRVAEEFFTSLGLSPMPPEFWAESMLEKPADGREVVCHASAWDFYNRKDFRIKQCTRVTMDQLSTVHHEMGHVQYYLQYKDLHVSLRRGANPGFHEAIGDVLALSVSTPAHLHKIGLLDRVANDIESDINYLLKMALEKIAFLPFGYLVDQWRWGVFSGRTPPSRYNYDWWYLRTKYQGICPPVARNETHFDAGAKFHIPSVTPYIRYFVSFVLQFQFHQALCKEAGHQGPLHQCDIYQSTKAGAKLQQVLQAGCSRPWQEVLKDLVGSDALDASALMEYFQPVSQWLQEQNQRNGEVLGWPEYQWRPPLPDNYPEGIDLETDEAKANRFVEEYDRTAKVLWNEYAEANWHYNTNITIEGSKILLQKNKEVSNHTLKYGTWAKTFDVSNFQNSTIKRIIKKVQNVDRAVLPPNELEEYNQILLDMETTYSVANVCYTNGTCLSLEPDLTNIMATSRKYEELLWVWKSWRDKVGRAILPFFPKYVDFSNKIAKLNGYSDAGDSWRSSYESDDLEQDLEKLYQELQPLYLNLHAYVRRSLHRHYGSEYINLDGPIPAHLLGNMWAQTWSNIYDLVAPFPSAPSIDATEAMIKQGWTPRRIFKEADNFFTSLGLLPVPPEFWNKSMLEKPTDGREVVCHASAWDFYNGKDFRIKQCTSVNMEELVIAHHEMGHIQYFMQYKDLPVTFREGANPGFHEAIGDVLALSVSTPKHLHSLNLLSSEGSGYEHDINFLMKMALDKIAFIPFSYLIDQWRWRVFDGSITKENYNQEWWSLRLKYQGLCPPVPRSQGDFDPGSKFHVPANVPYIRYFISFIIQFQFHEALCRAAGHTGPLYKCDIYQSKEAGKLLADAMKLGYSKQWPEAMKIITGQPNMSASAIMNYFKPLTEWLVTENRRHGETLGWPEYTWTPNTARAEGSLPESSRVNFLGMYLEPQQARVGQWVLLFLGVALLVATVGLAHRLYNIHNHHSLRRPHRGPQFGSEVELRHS

[2] = molecular target: T1, Angiotensin-converting enzyme (Rattus norvegicus); assay: […] inhibitory activity against plasmatic angiotensin converting enzyme (ACE) in anaesthetized rats after oral administration of 10 mg/kg dose; format: organism-based; parameters: dose 10 mg/kg
[3] = molecular target: T1, Angiotensin-converting enzyme (Rattus norvegicus); assay: […] inhibitory activity against plasmatic angiotensin converting enzyme (ACE) in anaesthetized rats after oral administration of 100 mg/kg dose; format: organism-based; parameters: dose 100 mg/kg
[4] = molecular target: T1, Angiotensin-converting enzyme (Rattus norvegicus); assay: […] inhibitory activity against plasmatic angiotensin converting enzyme (ACE) in anaesthetized rats after oral administration of 150 mg/kg dose; format: organism-based; parameters: dose 150 mg/kg
[5] = molecular target: T1, Angiotensin-converting enzyme (Rattus norvegicus); assay: […] inhibitory activity against plasmatic angiotensin converting enzyme (ACE) in anaesthetized rats after oral administration of 2.5 mg/kg dose; format: organism-based; parameters: dose 2.5 mg/kg
[6] = molecular target: T1, Angiotensin-converting enzyme (Rattus norvegicus); assay: […] inhibitory activity against plasmatic angiotensin converting enzyme (ACE) in anaesthetized rats after oral administration of 25 mg/kg dose; format: organism-based; parameters: dose 25 mg/kg
[7] = molecular target: T1, Angiotensin-converting enzyme (Rattus norvegicus); assay: […] inhibitory activity against plasmatic angiotensin converting enzyme (ACE) in anaesthetized rats after oral administration of 5 mg/kg dose; format: organism-based; parameters: dose 5 mg/kg
[8] = molecular target: T1, Angiotensin-converting enzyme (Rattus norvegicus); assay: […] inhibitory activity against plasmatic angiotensin converting enzyme (ACE) in anaesthetized rats after oral administration of 50 mg/kg dose; format: organism-based; parameters: dose 50 mg/kg
[9] = molecular target: T2, Neprilysin (Rattus norvegicus) (UniProt P07861); assay: Tested for inhibitory activity against neutral endopeptidase at a dose of 2.5 mg/kg in rats; Active; format: organism-based; parameters: dose 2.5 mg/kg
T2 sequence (whole entry): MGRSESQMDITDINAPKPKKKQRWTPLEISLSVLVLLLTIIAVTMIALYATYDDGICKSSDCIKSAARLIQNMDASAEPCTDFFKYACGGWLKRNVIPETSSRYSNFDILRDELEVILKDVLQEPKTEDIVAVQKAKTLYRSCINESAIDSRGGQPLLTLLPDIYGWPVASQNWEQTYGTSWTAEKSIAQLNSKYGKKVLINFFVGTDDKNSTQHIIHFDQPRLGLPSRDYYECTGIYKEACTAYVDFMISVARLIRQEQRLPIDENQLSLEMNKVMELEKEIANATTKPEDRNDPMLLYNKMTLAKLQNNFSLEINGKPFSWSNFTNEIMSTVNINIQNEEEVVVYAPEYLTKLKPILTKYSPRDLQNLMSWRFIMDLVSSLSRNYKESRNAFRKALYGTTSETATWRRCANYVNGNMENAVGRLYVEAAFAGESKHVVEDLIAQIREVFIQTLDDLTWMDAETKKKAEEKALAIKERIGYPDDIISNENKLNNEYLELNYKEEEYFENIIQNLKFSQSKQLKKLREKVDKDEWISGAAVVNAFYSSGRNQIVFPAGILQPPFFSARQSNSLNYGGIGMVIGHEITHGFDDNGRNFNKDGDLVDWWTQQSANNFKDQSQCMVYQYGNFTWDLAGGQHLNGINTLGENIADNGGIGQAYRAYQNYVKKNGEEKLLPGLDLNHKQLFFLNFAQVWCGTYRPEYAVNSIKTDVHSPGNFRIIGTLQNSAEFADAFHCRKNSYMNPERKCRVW

ED50 [1]: 12 mg/kg
inhibition [2]: 50%
inhibition [3]: 70%
inhibition [4]: 82%
inhibition [5]: 25%
inhibition [6]: 55%
inhibition [7]: 35%
inhibition [8]: 65%
Activity [9]: Active
Structure (SMILES): CC(NC(=O)C(CSC(=O)c1ccccc1)C(C)c1ccccc1)C(=O)O (centres undefined)
